Measurements: publication PMC4492750, “The discovery of a selective and potent A2a agonist with extended lung retention” (Pharmacology Research & Perspectives, 2015)
Values joined by “and” are separate entries in the source; they are usually repeats but may differ in a detail not shown here. Equal entries are not always repeated. Where two headings read alike, the source gives them in different places.

What was measured:
[1] = test system: LPS-induced BAL neutrophils; test: LPS-induced lung inflammation model, neutrophils in BAL fluid; assay type: in vivo, rat; conditions: for Reduction of total cells and neutrophilia in BAL fluid: 10 μg/kg i.t.
Experimental: The efficacy of the compound on neutrophils in BAL fluid is expressed as per cent inhibition of the full window (negative veh/veh controls vs. the positive veh/LPS controls): Inhibition (%) of LPS-induced BAL neutrophils by compound 2 was calculated using the following formula: [drawing 1] where A is the average in the group administered with vehicle and challenged with LPS; B is the average in the group administered with vehicle and challenged with saline; and C is the average in the group administered with test compound and challenged with LPS.
Animals in all efficacy studies were dosed intratracheally as described above in a buffered saline vehicle (pH 5) containing sodium chloride (8.5mg/ml), citric acid (0.28mg/ml) and sodium citrate (0.5mg/ml). The compound was dissolved in saline when given intravenously (0.9% NaCl) to the swivelled rats.
[…] Each rat was given LPS from the Pseudomona Aeruginosa bacteria (1µg/rat, 5µg/ml saline, Sigma-Aldrich, Sweden).
24 hours after the LPS challenge, rats were anaesthetized and exsanguinated via a cardiac incision. A tube was inserted and ligated to the trachea. The tube was connected to a syringe with 4ml PBS (without Ca^2+/Mg^2+) and a lavage of the whole lung was performed manually. The BAL fluid was collected individually in polyethylene tubes and kept on ice until further processed.
The BAL fluid was centrifuged and the supernatant separated from the cell pellet that was resuspended in 1.0ml of PBS. The total number of cells and cell differentia was counted in an automated cell counter and haematology analyzer (SYSMEX XT-1800iV, software for the rat BALF).

A3 = biological target: T1, A3 (Homo sapiens, UniProt P0DMS8); test: Selectivity panel of 98 targets in binding assays (Ricerca): A3; design: Ricerca (contract panel); conditions: 10 μmol/L of compound; data on AstraZeneca file
T1 sequence (P0DMS8 1-318): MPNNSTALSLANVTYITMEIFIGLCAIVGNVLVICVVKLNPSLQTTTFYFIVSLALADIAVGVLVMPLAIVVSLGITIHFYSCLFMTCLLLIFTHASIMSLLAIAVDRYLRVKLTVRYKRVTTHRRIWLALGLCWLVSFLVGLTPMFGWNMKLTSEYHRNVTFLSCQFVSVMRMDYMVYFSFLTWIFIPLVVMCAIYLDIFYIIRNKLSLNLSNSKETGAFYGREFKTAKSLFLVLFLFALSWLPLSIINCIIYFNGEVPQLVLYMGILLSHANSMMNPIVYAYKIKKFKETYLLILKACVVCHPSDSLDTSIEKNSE
Experimental: (§1) The medicinal chemistry synthetic optimization focused on the position C2 and N6 (Fig.2) with the aim to discover a compound with high A2a potency, high selectivity, low lipophilicity (logD), and high solubility. […] Selectivity of compound 2 was tested across 98 targets in binding assays (www.ricerca.com). The only identified significant hits (i.e., >50% effect at 10 μmol/L of compound 2) were A2a (∼100%) and A3 (∼84%) data on AstraZeneca file.

[2] = Plasma protein binding by equilibrium dialysis; assay type: in vitro ADME; conditions: male, Wistar, pH 7.4, rat plasma, 10 μmol/L, read-out: fu rat (free unbound drug in plasma)
Experimental: • Human A2a and A2b receptor pharmacology: Chinese hamster ovary CHO-K1 cells stably expressing human A2a and A2b receptors were used to determine substances agonistic potency and intrinsic activity. […] The signal corresponding to adenosine at 100 μmol/L was used to define 100% intrinsic activity. • Human A3 receptor pharmacology: A3 receptor Gi coupling was measured by GTPγ ^35[S] filter assay at serial dilutions of compound using membranes from Perkin-Elmer. The signal corresponding to the maximal response of NECA at 100 μmol/L was set to 100% intrinsic activity. • Lipopolysaccharide (LPS)-induced TNFα production in primary human peripheral blood mononuclear cells (hTNFα PBMC) and rat mononuclears (rTNFα splenocytes): Human PBMC and rat mononuclear spleen cells were incubated with serial dilutions of compound and stimulated with LPS.
The plasma protein binding was determined in plasma from male Wistar rats at a compound concentration of 10μM by equilibrium dialysis against a phosphate buffer at pH 7.4 using a semi-permeable membrane with a molecular cut-off of 6-8KDa (Spectra/Por, Spectrum Laboratories Inc, US). The compounds were dialyzed for 18h at 37±1°C in an air incubator on an orbital shaker. The samples were analysed using LC-MS/MS.

[3] = test system: mean arterial blood pressure and heart rate; test: Swivel study: four-step i.v. infusion in conscious rats, PK-PD of MAP and HR; assay type: in vivo, rat; design: Emax,MAP (maximum compound 2-induced decrease in MAP) / Emax,HR (maximum compound 2-induced increase in HR): unit not given here; conditions: for EC50: rat plasma concentration
Experimental: The relationship between plasma concentrations of compound 2 and mean arterial pressure (MAP) and HR, respectively, were modeled using data generated in the swivel study, including data from start of first infusion up to 2 h after end of last infusion (Dose 1–4, equivalent to 1.9, 11, 67 and 410 μg/kg per min for 15 min at each step). The baseline value, calculated as average of measurements during the 60 min baseline recording period was used as the predose value. Temporal differences between effect measurements and blood sampling for plasma analysis were accounted for by fitting a standard two-compartment PK model to the time-concentration profile for each individual animal, and subsequently using the individual parameter estimates to simulate compound 2 plasma concentrations at the times of effect measurements. Phoenix® WinNonlin® Version 6.2.1 (Certara, L.P., Princetown, NJ) was used for modelling.
A 4-step intravenous infusion protocol was performed during continuous recording of the arterial blood pressure signal and intermittent blood sampling in seven conscious rats the day after surgical implantation of an arterial line in the abdominal aorta via the caudal artery and a venous line in the jugular vein. After a baseline recording of 60 minutes, compound 2 was given in 15-minute constant infusion steps of 1.9, 11, 67 and 410μg/kg/min (0.034-0.2ml/kg/min) followed by a washout period of 120 minutes. One rat was monitored under the same conditions as a time-matched control. Blood samples for analysis of drug exposure were taken at the end of each dose step and intermittently during the washout.

A2a = A2a (Homo sapiens, UniProt P29274); test: Selectivity panel of 98 targets in binding assays (Ricerca): A2a; design: Ricerca (contract panel); conditions: 10 μmol/L of compound; data on AstraZeneca file
Experimental: as §1

[4] = calculated from PK-PD relationships
[5] = conscious rats, 2 h after end of four-step i.v. infusion

A2a, sequence (P29274 whole entry): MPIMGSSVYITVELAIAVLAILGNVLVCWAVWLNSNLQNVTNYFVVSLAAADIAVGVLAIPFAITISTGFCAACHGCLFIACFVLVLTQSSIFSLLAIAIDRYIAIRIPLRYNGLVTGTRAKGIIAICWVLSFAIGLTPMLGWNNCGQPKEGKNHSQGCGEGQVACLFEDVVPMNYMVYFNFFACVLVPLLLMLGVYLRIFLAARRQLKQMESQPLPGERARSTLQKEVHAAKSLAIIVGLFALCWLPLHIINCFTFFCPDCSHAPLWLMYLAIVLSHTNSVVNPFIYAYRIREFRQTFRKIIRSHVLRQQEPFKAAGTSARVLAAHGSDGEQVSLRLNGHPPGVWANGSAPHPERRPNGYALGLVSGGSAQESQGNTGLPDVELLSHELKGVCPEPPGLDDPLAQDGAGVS

CCNC(=O)[C@H]1O[C@@H](n2cnc3c(NC(CC)CC)nc(NCCNC(=O)Nc4cc[n+](C)cc4)nc32)[C@H](O)[C@@H]1O [Compound 2, (2S,3S,4R,5R)-N-ethyl-5-[6-(1-ethylpropylamino)-2-[2-[(1-methylpyridin-1-ium-4-yl)carbamoylamino]ethylamino]purin-9-yl]-3,4-dihydroxy-tetrahydrofuran-2-carboxamide]
Inhibition of recovered neutrophils in BAL fluid ([1]; 0.1 μg/kg i.t. single dose 24 h prior to LPS): 9% | Inhibition of recovered neutrophils in BAL fluid ([1]; 1 μg/kg i.t. single dose 24 h prior to LPS): 17% | Inhibition of recovered neutrophils in BAL fluid ([1]; 10 μg/kg i.t. for five consecutive days, LPS 24 h after last dose): 53% | Inhibition of recovered neutrophils in BAL fluid ([1]; 10 μg/kg i.t. for three consecutive days, LPS 24 h after last dose): 39% | Inhibition of recovered neutrophils in BAL fluid ([1]; 10 μg/kg i.t. single dose 24 h prior to LPS (n.s., P = 0.086)): 39% | Reduction of total cells and neutrophilia in BAL fluid ([1]; 36 and 24 h pre-treatment before LPS): significant reduction | Reduction of total cells and neutrophilia in BAL fluid ([1]; 12 h pretreatment before LPS): not significant | Maximum inhibition of neutrophil recruitment ([1]; single i.t. dose of 10 μg/kg, rodents, previous dose-response studies): 40–50% | Effect in binding assay, A3 (A3): ~84% | fraction unbound at 18 h, 10 μM [2]: 0.44 | Concentration for 10% MAP decrease relative to plasma concentration at effective dose (fold lower) ([3]; 0.3 nmol/L vs 2-4 nmol/L at 10 μg/kg i.t.): 10 fold | kE0 (first-order rate constant, effect compartment) ([3]; PK-PD model of MAP, mean ± SD): 0.058 ± 0.039 min⁻¹ | EC50 ([3]; Rattus norvegicus, iv, sigmoid Emax model, mean ± SD, read-out: EC50,MAP (plasma concentration that induces half the maximum MAP decrease)): 0.5 nM | EC50 ([3]; Rattus norvegicus, iv, simple Emax model on mean data, read-out: EC50,HR): 0.18 nM | Plasma concentration that produces 10% increase from baseline HR [3, 4]: 0.04 nM | Total plasma concentration that causes 10% decrease from baseline MAP [3, 4]: 0.3 ± 0.2 nmol/L and 0.3 nmol/L | Blood pressure 2 h postdosing [3, 5]: 100 ± 7 mmHg | Heart rate 2 h postdosing [3, 5]: 489 ± 41 bpm | Heart rate at dose 2 ([3]; conscious rats, i.v. infusion 11 μg/kg per min for 15 min, baseline 381 ± 21): 472 ± 33 bpm | Blood pressure at dose 3 ([3]; conscious rats, i.v. infusion 67 μg/kg per min for 15 min, baseline 114 ± 9): 98 ± 9 mmHg | Core body temperature ([3]; highest dose (410 μg/kg per min i.v.)): significant reduction | EC50 ([3]; sigmoid Emax model, mean ± SD, read-out: EC50,MAP (plasma concentration that induces half the maximum MAP decrease)): 0.52 ± 0.16 nM | Emax,MAP (maximum compound 2-induced decrease in MAP) ([3]; sigmoid Emax model, mean ± SD): 37 ± 11 | Emax,HR (maximum compound 2-induced increase in HR) ([3]; simple Emax model on mean data): 158 | Effect in binding assay, A2a (A2a): ~100%
